In brackets after ≈: the same amount, converted by molar mass.
Legend:
MRSA = assay: In vitro activity, MIC90 against MRSA (n = 38), agar dilution; assay type: cell-based; settings: Staphylococcus aureus, MuellerHinton agar, inoculum: 10^5 CFU/spot
Method: (§1) Representative compounds (A and B, above) of the present invention were tested. In vitro activity was determined by minimum inhibitory concentration by the agar dilution method in Mueller Hinton agar, inoculum=10^4 CFU/spot.
*Agar dilution method on MuellerHinton agar, inoculum: 10^5 CFU/spot

S. aureus 270 A (MRSA) = assay: In vivo efficacy, sc abscess model in mice infected with S. aureus 270 A (MRSA); settings: 10 mg/kg ip; for Median log CFU: 3 mice, untreated 6.92
Method: In vivo efficacy was determined with a sc abscess model in mice, infected with S. aureus 270 A (MRSA). The dose (ip) was 10 mg/kg. The median log of colony forming units (CFU) was determined.

P. aeruginosa ATCC27853 = assay: In vitro activity, minimum inhibitory concentration, agar dilution, P. aeruginosa ATCC27853; assay type: cell-based; settings: Pseudomonas aeruginosa, Mueller Hinton agar, inoculum=10^4 CFU/spot
Method: as §1

S. aureus 270A (MRSA) = assay: In vitro activity, minimum inhibitory concentration, agar dilution, S. aureus 270A (MRSA); assay type: cell-based; settings: Staphylococcus aureus, Mueller Hinton agar, inoculum=10^4 CFU/spot
Method: as §1

S.aureus 6538 (MSSA) = assay: In vitro activity, minimum inhibitory concentration, agar dilution, S. aureus 6538 (MSSA); assay type: cell-based; settings: Staphylococcus aureus, Mueller Hinton agar, inoculum=10^4 CFU/spot
Method: as §1

S. aureus 743 (MRSA) = assay: In vitro activity, minimum inhibitory concentration, agar dilution, S. aureus 743 (MRSA); assay type: cell-based; settings: Staphylococcus aureus, Mueller Hinton agar, inoculum=10^4 CFU/spot
Method: as §1

SMILES	MIC90 (MRSA) [µg/mL]	activity compared with vancomycin (S. aureus 270 A (MRSA))	reduction in the number of CFUs as compared to the untreated control (S. aureus 270 A (MRSA))	Median log CFU (S. aureus 270 A (MRSA)) [log CFU]	MIC (P. aeruginosa ATCC27853) [µg/mL]	MIC (S. aureus 270A (MRSA)) [µg/mL]	MIC (S.aureus 6538 (MSSA)) [µg/mL]	MIC (S. aureus 743 (MRSA)) [µg/mL]
Nc1nc(/C(=N/O)C(=O)N[C@@H]2C(=O)N3C(C(=O)O)=C(/C=C4\CCN([C@@H]5CCNC5)C4=O)CS[C@H]23)ns1 [A, (6R, 7R)-7-[(Z)-2-(5-Amino-[1,2,4]thiadiazol-3-yl)-2-hydroxyimino-acetylamino]-8-oxo-3-[(E)-(R)-2-oxo-[1,3']bipyrrolidinyl-3-ylidenemethyl]-5-thia-1-aza-bicyclo[4.2.0]oct-2-ene-2-carboxylic acid]	4 (≈ 7.48 µM)	more active than vancomycin	more than hundred-fold reduction	4.72	2 (≈ 3.74 µM)	2 (≈ 3.74 µM)	0.5 (≈ 0.935 µM)	2 (≈ 3.74 µM)
Nc1nc(/C(=N/O)C(=O)N[C@@H]2C(=O)N3C(C(=O)O)=C(/C=C4\CCN([C@H]5CCNC5)C4=O)CS[C@H]23)ns1 [B, (6R, 7R)-7-[(Z)-2-(5-Amino-[1,2,4]thiadiazol-3-yl)-2-hydroxyimino-acetylamino]-8-oxo-3-[(E)-(S)-2-oxo-[1,3']bipyrrolidinyl-3-ylidenemethyl]-5-thia-1-aza-bicyclo[4.2.0]oct-2-ene-2-carboxylic acid]	4 (≈ 7.48 µM)				4 (≈ 7.48 µM)	4 (≈ 7.48 µM)	0.25 (≈ 0.468 µM)	2 (≈ 3.74 µM)
CN[C@H](CC(C)C)C(=O)N[C@H]1C(=O)N[C@@H](CC(N)=O)C(=O)N[C@H]2C(=O)N[C@H]3C(=O)N[C@H](C(=O)N[C@H](C(=O)O)c4cc(O)cc(O)c4-c4cc3ccc4O)[C@H](O)c3ccc(c(Cl)c3)Oc3cc2cc(c3O[C@@H]2O[C@H](CO)[C@@H](O)[C@H](O)[C@H]2O[C@H]2C[C@](C)(N)[C@H](O)[C@H](C)O2)Oc2ccc(cc2Cl)[C@H]1O [Vancomycin, vancomycin, reference compound]				5.28				
